How the values were obtained:
[1] = test system: F2 population from the cross GM40 (A122T)/HA425 (A205V); test: imazapyr challenge of segregating population (Example 1); assay type: in vivo, sunflower; conditions: 320 g a.i. ha-1; eighty F2 plants
Method: To determine the phenotypic interactions of the resistance gene A122T and the Imr1 gene (A205V) already described in IMI-R sunflowers (HA425), F1, F2 and BC1F1 populations from the cross GM40 (A122T)/HA425 (A205V) were evaluated at two herbicide applications rates (80 and 320 g. a. i. Ha^−1 of imazapyr). […] When F2 and BC1F1 populations were scored at the higher herbicide rate (320 g. a. i. Ha-1), which discriminates both parents, segregation for susceptibility was observed. Only two phenotypic classes could be detected, a resistant class with plants without any injury or slight symptoms and a susceptible phenotype that was killed like the control line HA425.
The AHASL1 gene in sunflower presents a simple sequence repeat (SSR) polymorphism which discriminates lines carrying the Imr1 allele from any other sunflower genotype (Kolkman et al. (2004) Theor. Appl. Genet. 109: 1147-1159). […] This length variant polymorphism detected in GM40 and HA425 was exploited to investigate the segregation in the F2 and BC1F1 populations derived from crossing both lines. […] The cosegregation of herbicide resistance phenotypes and AHASL1 haplotypes was further assessed on 50 BC1F1 progeny segregating for resistance. […]

[2] = test system: sunflower hybrid H3 (L3*L2), 122/205; test: field trial, imazapyr at V8 or R1 stage (Example 4); conditions: H3 122/205
[3] = test system: hybrids carrying the A205V mutation event (A205V/A205V, A205V/WT); test: as above; conditions: 160 g ai/ha applied at R1; 14 DAT
[4] = test system: sunflower line BTK112 (conventional); test: tolerance to imidazolinones, greenhouse (Example 8)
[5] = test system: lines carrying at least one allele A122T (A122T/A122T, A122T/A205V, A122/WT); test: field trial, imazapyr at V8 or R1 stage (Example 4); conditions: 160 g ai/ha applied at R1; 14 DAT
[6] = test system: sunflower hybrid H6 (L1 * WT), 205/wild type; test: as above; conditions: H6 205/wild type
[7] = 160 g ai/ha applied at R1, 14 DAT
[8] = 160 g ai/ha applied at R1, 21 DAT
[9] = 160 g ai/ha applied at V8, 14 DAT
[10] = 160 g ai/ha applied at V8, 21 DAT

CC(C)C1(C)N=C(c2ncccc2C(=O)O)NC1=O (centres unmarked) [imazapyr]
plants killed by the herbicide (S) [1]: 22 plants | plants with no symptoms or a slight injury (R) [1]: 58 plants | Mean Phytotoxicity Index (0-50) [2, 7]: 4.3 | Mean Phytotoxicity Index (0-50) [2, 8]: 0.7 | Mean Phytotoxicity Index (0-50) [2, 9]: 3 | Mean Phytotoxicity Index (0-50) [2, 10]: 0 | PI (0-50), group with chlorosis, stunting and deformation [3]: greater than 35 | outcome of the herbicide treatment ([4]; 160 gr/ha at V4): killed | Mean Phytotoxicity Index (0-9) ([4]; 160 gr/ha at V4, fourteen days after treatment): 9 | PI (0-50), group with chlorosis symptoms only [5]: less than 11.7 | Mean Phytotoxicity Index (0-50) [6, 7]: 40 | Mean Phytotoxicity Index (0-50) [6, 8]: 48.3 | Mean Phytotoxicity Index (0-50) [6, 9]: 5 | Mean Phytotoxicity Index (0-50) [6, 10]: 5

From patent US20150148234A1, “HERBICIDE-RESISTANT SUNFLOWER PLANTS WITH MULTIPLE HERBICIDE RESISTANT ALLELES OF AHASL1 AND METHODS OF USE” (NIDERA S.A., priority 2013, published 2015)
